Experimental findings from patent US10603345B2, “Pharmaceutical composition for treating respiratory disease” (Kunming Institute of Botany, The Chinese Academy of Sciences, priority 2015, dated 2020) are described below.

What all share (format): in vivo
The test system of experiment [1] is KL-6 in serum of pulmonary fibrosis model mouse. Put plainly: Effect on KL-6 in serum of pulmonary fibrosis model mouse. As to conditions: ELISA, bleomycin pulmonary fibrosis mouse, ig 28 d, dose/kg: prednisone acetate 5 mg, Test group 1 50, 2 25, 3 12.5, picrinine 5.0, vallesamine 3.0, scholaricine 3.5, 19-epi-scholaricine 1.0 mg, x ± SD. The procedure:
(§1) Animal source: 30˜35 g male ICR mouse, from laboratory animal department of Kunming Medical University, License No. SCXK (Dian) 2011-0004.
(§2) Method and route: bleomycin was used to induce mouse pulmonary fibrosis, and after intragastrical administration for 28 d at a dose of 20 mL/kg, the animal was sacrificed at the 29th day.
(§3) Group and dose: Sham group, Model group, Positive control group, prednisone acetate (5 mg/kg) group, Test group 1: picrinine, vallesamine, scholaricine and 19-epischolaricine prepared in Example 1.7 were mixed at different ratios by weight (50 mg/kg), Test group 2: the alkaloid composition (25 mg/kg) prepared in Example 1.5, Test group 3: the alkaloid composition (12.5 mg/kg) prepared in Example 1.6, Picrinine group (5.0 mg/kg), Vallesamine group (3.0 mg/kg), Scholaricine group (3.5 mg/kg), and 19-epischolaricine group (1.0 mg/kg).
(§4) Positive control drug: prednisone acetate tablet, Approval number: H33021207, 5 mg/tablet, produced by Zhejiang Xianju Pharmaceutical Co., Ltd., Batch No. 140146.
(§5) Sample preparation: all the samples were prepared by using 0.5% carboxymethylcellulose sodium (0.5% CMC-Na).
Group and dose: in Test group 1, the ratio of picrinine, vallesamine, scholaricine and 19-epischolaricine by weight was 45:38:30:8, and the other groups and doses thereof were as described in Example 12.
Test index: KL-6 in serum was used as index, and was determined by enzyme linked immunosorbent assay.
On the technique in general: ELISA stands for enzyme-linked immunosorbent assay.

The test system of experiment [2] is LDH in serum of pulmonary fibrosis model mouse. Put plainly: Effect on LDH in serum of pulmonary fibrosis model mouse. As to conditions: bleomycin pulmonary fibrosis mouse, ig 28 d, dose/kg: prednisone acetate 5 mg, Test group 1 50, 2 25, 3 12.5, picrinine 5.0, vallesamine 3.0, scholaricine 3.5, 19-epi-scholaricine 1.0 mg, x ± SD. On the procedure: as §1, §2, §3, §4
(§6) Sample preparation: all the samples were prepared by using 0.5% carboxymethylcellulose sodium (0.5% CMC-Na). […]
Test index: LDH in serum was used as index, and was determined by 2, 4-dinitrophenylhydrazine method.

In experiment [3] the test system is MDA in serum and homogenate of pulmonary fibrosis model mouse. Briefly: Effect on MDA in serum and homogenate of pulmonary fibrosis model mouse. As to conditions: bleomycin pulmonary fibrosis mouse, ig 28 d, dose/kg: prednisone acetate 5 mg, Test group 1 50, 2 25, 3 12.5, picrinine 5.0, vallesamine 3.0, scholaricine 3.5, 19-epi-scholaricine 1.0 mg, x ± SD. On the procedure: as §1, §2, §3, §4, §5
Group and dose: in Test group 1, the ratio of picrinine, vallesamine, scholaricine and 19-epischolaricine by weight was 8:5:5:1, and the other groups and doses thereof were as described in Example 12.
Test index: MDA in serum and homogenate was used as index, and was determined by thiobabituric acid method.

Experiment [4] concerns SOD in serum and homogenate of pulmonary fibrosis model mouse. Briefly: Effect on SOD in serum and homogenate of pulmonary fibrosis model mouse. As to conditions: bleomycin pulmonary fibrosis mouse, ig 28 d, dose/kg: prednisone acetate 5 mg, Test group 1 50, 2 25, 3 12.5, picrinine 5.0, vallesamine 3.0, scholaricine 3.5, 19-epi-scholaricine 1.0 mg, x ± SD. The procedure:
as §1, §2, §3, §4, §5
Group and dose: in Test group 1, the ratio of picrinine, vallesamine, scholaricine and 19-epischolaricine by weight was 10:7:7:2, and the other groups and doses thereof were as described in Example 12.
Test index: SOD in serum and homogenate was used as index, and was determined by xanthine oxidase method.

For experiment [5], the system named is Col-1 in homogenate of pulmonary fibrosis model mouse. Briefly: Effect on Col-1 in homogenate of pulmonary fibrosis model mouse. As to conditions: ELISA, bleomycin pulmonary fibrosis mouse, ig 28 d, dose/kg: prednisone acetate 5 mg, Test group 1 50, 2 25, 3 12.5, picrinine 5.0, vallesamine 3.0, scholaricine 3.5, 19-epi-scholaricine 1.0 mg, x ± SD. The procedure:
as §1, §2, §3, §4, §5
Group and dose: in Test group 1, the ratio of picrinine, vallesamine, scholaricine and 19-epischolaricine by weight was 20:17:17:4, and the other groups and doses thereof were as described in Example 12.
Test index: Col-1 in homogenate was used as index, and was determined by enzyme linked immunosorbent assay.

For experiment [6], the system named is Hyp in homogenate of pulmonary fibrosis model mouse. Briefly: Effect on Hyp in homogenate of pulmonary fibrosis model mouse. As to conditions: bleomycin pulmonary fibrosis mouse, ig 28 d, dose/kg: prednisone acetate 5 mg, Test group 1 50, 2 25, 3 12.5, picrinine 5.0, vallesamine 3.0, scholaricine 3.5, 19-epi-scholaricine 1.0 mg, x ± SD. The procedure: as §1, §2, §3, §4, §6
Test index: Hyp in homogenate was used as index, and was determined by enzyme linked immunosorbent assay.

Experiment [7] concerns CRP in serum in COPD model mouse. Put plainly: Effect on CRP in serum in COPD model mouse. As to conditions: ELISA, ig 7 d, dose/kg: dexamethasone 1 mg, Test group 1 50, 2 25, 3 10, picrinine 10, vallesamine 6, scholaricine 7, 19-epi-scholaricine 2 mg, x ± SD. On the procedure: (§7) Animal source: 25˜30 g male ICR mouse, from laboratory animal department of Kunming Medical University, License No. SCXK (Dian) 2011-0004.
(§8) Method and route: lipopolysaccharide (LPS) plus smoke exposure was used for 30 days to induce mouse chronic obstructive pulmonary disease model; and after intragastrical administration for 7 d at a dose of 20 mL/kg, the animal was sacrificed at the eighth day.
(§9) Picrinine group (10 mg/kg), Vallesamine group (6.0 mg/kg), Scholaricine group (7.0 mg/kg), 19-epischolaricine group (2.0 mg/kg).
as §5
Group and dose: in Test group 1, the ratio of picrinine, vallesamine, scholaricine and 19-epischolaricine by weight was 25:19:20:4, and the other groups and doses thereof were as described in Example 10.
Test index: CRP in serum was used as index, and was determined by enzyme linked immunosorbent assay.

The subject of experiment [8] is SOD in serum and BALF of asthma model mouse. Put plainly: Effect on SOD in serum and BALF of asthma model mouse. As to conditions: ig 7 d, dose/kg: dexamethasone 2.0 mg, Test group 1 50, 2 25, picrinine 5.0, vallesamine 3.0, scholaricine 3.0, 19-epi-scholaricine 3.5 mg, x ± SD. The procedure: as §7
(§10) Method and route: ovalbumin (OVA) was used to induce mouse asthma model, and after intragastrical administration for 7 d at a dose of 20 mL/kg, the animal was sacrificed at the eighth day.
(§11) Test group 1: picrinine, vallesamine, scholaricine and 19-epischolaricine prepared in Example 1.7 were homogeneously mixed at different ratios by weight (50 mg/kg), Test group 2: the alkaloid composition prepared in Example 1.4 (25 mg/kg). […]
as §5
Group and dose: in Test group 1, the ratio of picrinine, vallesamine, scholaricine and 19-epischolaricine by weight was 12:10:9:2, and the other groups and doses thereof were as described in Example 11.
Test index: SOD in serum and BALF was used as index, and was determined by xanthine oxidase method.

The test system of experiment [9] is SOD in serum and homogenate of COPD model mouse. Put plainly: Effect on SOD in serum and homogenate of COPD model mouse. As to conditions: ig 7 d, dose/kg: dexamethasone 1 mg, Test group 1 50, 2 25, 3 10, picrinine 10, vallesamine 6, scholaricine 7, 19-epi-scholaricine 2 mg, x ± SD. The procedure:
as §7, §8, §9, §5
Group and dose: in Test group 1, the ratio of picrinine, vallesamine, scholaricine and 19-epischolaricine by weight was 16:11:12:3, and the other groups and doses thereof were as described in Example 10.
Test index: SOD in serum and lung homogenate was used as index, and was determined by xanthine oxidase method.

The subject of experiment [10] is IL-4 in BALF of asthma model mouse. Put plainly: Effect on IL-4 in BALF of asthma model mouse. As to conditions: ELISA, ig 7 d, dose/kg: dexamethasone 2.0 mg, Test group 1 50, 2 25, picrinine 5.0, vallesamine 3.0, scholaricine 3.0, 19-epi-scholaricine 3.5 mg, x ± SD. On the procedure: as §7, §10, §11, §5
Group and dose: in Test group 1, the ratio of picrinine, vallesamine, scholaricine and 19-epischolaricine by weight was 25:18:15:3, and the other groups and doses thereof were as described in Example 11. […]

Experiment [11] deals with MDA in serum and BALF of asthma model mouse. Put plainly: Effect on MDA in serum and BALF of asthma model mouse. As to conditions: ig 7 d, dose/kg: dexamethasone 2.0 mg, Test group 1 50, 2 25, picrinine 5.0, vallesamine 3.0, scholaricine 3.0, 19-epi-scholaricine 3.5 mg, x ± SD. The procedure: as §7, §10, §11, §5
Group and dose: in Test group 1, the ratio of picrinine, vallesamine, scholaricine and 19-epischolaricine by weight was 8:6:5:1, and the other groups and doses thereof were as described in Example 11.
Test index: MDA in serum and BALF was used as index, and was determined by thiobarbituric acid method.

The subject of experiment [12] is MDA in serum and homogenate of COPD model mouse. Put plainly: Effect on MDA in serum and homogenate of COPD model mouse. As to conditions: ig 7 d. The procedure: as §7, §8, §9, §5
Group and dose: in Test group 1, the ratio of picrinine, vallesamine, scholaricine and 19-epischolaricine by weight was 9:6:5:1, and the other groups and doses thereof were as described in Example 10.
Test index: MDA in serum and homogenate was used as index, and was determined by thibabituric acid method.

The test system of experiment [13] is white blood cell count and classification in BALF of COPD model mouse. Put plainly: Effect on white blood cell count and classification in BALF of COPD model mouse. As to conditions: COPD mouse (LPS plus smoke exposure 30 days), ig 7 d, dose/kg: dexamethasone 1 mg, Test group 1 50, 2 25, 3 10, picrinine 10, vallesamine 6, scholaricine 7, 19-epi-scholaricine 2 mg, x ± SD. The procedure: as §7, §8, §9, §5
Group and dose: in Test group 1, the ratio of picrinine, vallesamine, scholaricine and 19-epischolaricine by weight was 48:40:29:10, and the other groups and doses thereof were as described in Example 10.
Test index: total number of white blood cells and inflammatory cell classification in bronchoalveolar lavage fluid (BALF) were used as indexes, and were determined by full-automatic hemocytometer.

Regarding `CC(=O)OCC(=O)[C@@]1(O)CC[C@H]2[C@@H]3CCC4=CC(=O)C=C[C@]4(C)[C@H]3C(=O)C[C@@]21C` [prednisone acetate, reference compound], the KL-6 in experiment [1] worked out at 3.00 ± 1.00 U/mg prot. The LDH in [2] came to 10.5 ± 3.4 U/g prot. For the same molecule, the “MDA Homogenate” value in experiment [3] (homogenate) is 19.0 ± 6.6 nmol/mg prot. The “MDA Serum” value in [3] (serum) amounted to 0.55 ± 0.17 nmol/mg prot. Besides, in [4] (homogenate), the “SOD homogenate” value is 60.0 ± 15.9 U/mg prot. For the same molecule, in experiment [4] (serum), the “SOD Serum” value amounted to 15.5 ± 3.8 U/mg prot. The molecule also had a Col-1 in experiment [5] of 6.0 ± 2.1 μg/g prot. The Hyp in experiment [6] came out at 2.9 ± 0.8 μg/g prot.
Regarding `COC(=O)C1=C2Nc3c(O)cccc3[C@@]23CCN2C[C@@H]([C@@H](C)O)[C@@H]1C[C@H]23` [scholaricine], the LDH in experiment [2] is listed as 12.5 ± 3.2 U/g prot. In experiment [7], this molecule displayed a CRP of 24.4 ± 2.4 pg/mL. The molecule also gave an SOD lavage fluid in [8] (BALF) of 76.78 ± 8.01 U/mL. Further, the values for the SOD Serum in experiment [8] (serum) and in experiment [9] (serum) were 73.36 ± 8.44 U/mL and 93.61 ± 12.37 U/mL, respectively. The molecule further gave an SOD homogenate in experiment [9] (lung homogenate) of 58.43 ± 7.04 U/mL. Further, the IL-4 in [10] is 11.21 ± 3.62 pg/mL. Moreover, in experiment [6], the Hyp amounted to 6.5 ± 1.5 μg/g prot. This molecule also had an MDA lavage fluid in experiment [11] (BALF) of 2.43 ± 1.05 nmol/mL. Moreover, the MDA Serum in experiment [11] (serum) worked out at 9.19 ± 2.77 nmol/mL; in [12] (serum, dose/kg: dexamethasone 1 mg, Test group 1 50, 2 25, 3 10, picrinine 10, vallesamine 6, scholaricine 7, 19-epi-scholaricine 2 mg, x ± SD), 12.21 ± 3.38 nmol/mL. In addition, the “content of MDA (serum or homogenate not given)” value in [12] (vallesamine 6, scholaricine 7, 19-epi-scholaricine 2 mg/kg) is reported as “significantly decrease”. Further, the “MDA Homogenate” value in experiment [12] (lung homogenate, dose/kg: dexamethasone 1 mg, Test group 1 50, 2 25, 3 10, picrinine 10, vallesamine 6, scholaricine 7, 19-epi-scholaricine 2 mg, x ± SD) was 6.09 ± 1.25 nmol/mL. Besides, the Leukocyte number in experiment [13] is reported as 2.5 ± 3.5 ×10^5/mL. Further, in experiment [13], the Neutrophil number is listed as 0.66 ± 0.81 ×10^5/mL.
